Test results: patent publication US9029553B2, “2-anilino nicotinyl linked 2-amino benzothiazole conjugates and process for the preparation thereof” (Council of Scientific & Industrial Research, priority 2011, dated 2015)

Legend:
[1] = system: caspase-3, caspase-8, caspase-9 activity in HL-60 Cells; assay: Caspases induction; assay type: cell-based, human; settings: 1 μM, 24 h
Excerpt: So activation of caspases by compound 8 indicate that it induce apoptosis through both the intrinsic as well as extrinsic apoptotic pathway in HL-60 cells.

[2] = system: normal monkey kidney CV-1 cells; assay: MTT cytotoxicity in normal cells; assay type: cell-based; settings: Primates
Description: These compounds were also evaluated for their cytotoxic potential in normal cells and for these purpose their IC50 value were also determine in normal monkey kidney CV-1 cells by using MTT method. The ratios of normal to cancer cells IC50 value were ranges from 10-1000 times (Table 5).

[3] = system: SF-295; assay: NCI SRB GI50 screen; assay type: cell-based; settings: Homo sapiens, CNS, 48 hrs exposure, read-out: Growth Inhibition GI50 SF-295
Description: (§1) 2-Anilino nicotinyl linked 2-amino benzothiazole conjugates of formula 9-12 were tested against fifty nine human cancer cell lines derived from nine cancer types (leukemia, non-small cell lung cancer, colon cancer, CNS cancer, melanoma, ovarian cancer, renal cancer, prostate cancer and breast cancer) as per NCI protocol. For each compound, dose response curves for individual cell lines were measured at a minimum of five concentrations at 10 fold dilutions. A protocol of 48 hrs continuous drug exposure was used, and a sulforhodamine B (SRB) protein assay was used to estimate cell viability or growth.

[4] = system: Sw-620; assay: NCI SRB GI50 screen; assay type: cell-based; settings: Homo sapiens, Colon, 48 hrs exposure, read-out: Growth Inhibition GI50 SW-620
Description: as §1

[5] = system: HL-60(TB); assay: NCI SRB GI50 screen; assay type: cell-based; settings: Homo sapiens, Leukemia, 48 hrs exposure, read-out: Growth Inhibition GI50 HL-60(TB)
Description: as §1

[6] = system: PC-3; assay: NCI SRB GI50 screen; assay type: cell-based; settings: Homo sapiens, Prostate, 48 hrs exposure, read-out: Growth Inhibition GI50 PC-3
Description: as §1

[7] = system: T-47D; assay: NCI SRB GI50 screen; assay type: cell-based; settings: Homo sapiens, T47D; Breast, 48 hrs exposure; read-out: Growth Inhibition GI50 T-47D
Description: as §1

[8] = system: SK-MEL-5; assay: NCI SRB GI50 screen; assay type: cell-based; settings: Homo sapiens, Melanoma, 48 hrs exposure, read-out: Growth Inhibition GI50 SK-MEL-5
Description: as §1

[9] = system: NCI-H226; assay: NCI SRB GI50 screen; assay type: cell-based; settings: Homo sapiens, Non-small lung, 48 hrs exposure, read-out: Growth Inhibition GI50 NCI-H226
Description: as §1

[10] = system: NCI-H460; assay: NCI SRB GI50 screen; assay type: cell-based; settings: Homo sapiens, Non-small lung, 48 hrs exposure, read-out: Growth Inhibition GI50 NCI-H460
Description: as §1

[11] = system: U251; assay: NCI SRB GI50 screen; assay type: cell-based; settings: Homo sapiens, U-251; CNS, 48 hrs exposure; read-out: Growth Inhibition GI50 U251
Description: as §1

[12] = system: MDA-MB-468; assay: NCI SRB GI50 screen; assay type: cell-based; settings: Homo sapiens, Breast, 48 hrs exposure, read-out: Growth Inhibition GI50 MDA-MB-468
Description: as §1

[13] = system: HT29; assay: NCI SRB GI50 screen; assay type: cell-based; settings: Homo sapiens, HT-29; Colon, 48 hrs exposure; read-out: Growth Inhibition GI50 HT29
Description: as §1

[14] = system: EKVX; assay: NCI SRB GI50 screen; assay type: cell-based; settings: Homo sapiens, Non-small lung, 48 hrs exposure, read-out: Growth Inhibition GI50 EKVX
Description: as §1

[15] = system: MOLT-4; assay: NCI SRB GI50 screen; assay type: cell-based; settings: Homo sapiens, Leukemia, 48 hrs exposure, read-out: Growth Inhibition GI50 MOLT-4
Description: as §1

[16] = system: NCI/ADR-RES; assay: NCI SRB GI50 screen; assay type: cell-based; settings: Homo sapiens, Ovarian, 48 hrs exposure, read-out: Growth Inhibition GI50 NCI/ADR-RES
Description: as §1

[17] = system: OVCAR-3; assay: NCI SRB GI50 screen; assay type: cell-based; settings: Homo sapiens, Ovarian, 48 hrs exposure, read-out: Growth Inhibition GI50 OVCAR-3
Description: as §1

[18] = system: MALME-3M; assay: NCI SRB GI50 screen; assay type: cell-based; settings: Homo sapiens, read-out: Growth Inhibition GI50 MALME-3M, Melanoma, 48 hrs exposure
Description: as §1

[19] = system: CCRF-CEM; assay: NCI SRB GI50 screen; assay type: cell-based; settings: Homo sapiens, Leukemia, 48 hrs exposure, read-out: Growth Inhibition GI50 CCRF-CEM
Description: as §1

[20] = system: COLO 205; assay: NCI SRB GI50 screen; assay type: cell-based; settings: Homo sapiens, Colon, 48 hrs exposure, read-out: Growth Inhibition GI50 COLO 205
Description: as §1

[21] = system: NCI-H23; assay: NCI SRB GI50 screen; assay type: cell-based; settings: Homo sapiens, Non-small lung, 48 hrs exposure, read-out: Growth Inhibition GI50 NCI-H23
Description: as §1

[22] = system: HCT-116; assay: NCI SRB GI50 screen; assay type: cell-based; settings: Homo sapiens, Colon, 48 hrs exposure, read-out: Growth Inhibition GI50 HCT-116
Description: as §1

[23] = system: A549/ATCC; assay: NCI SRB GI50 screen; assay type: cell-based; settings: Homo sapiens, Non-small lung, 48 hrs exposure, read-out: Growth Inhibition GI50 A549/ATCC
Description: as §1

[24] = system: SF-268; assay: NCI SRB GI50 screen; assay type: cell-based; settings: Homo sapiens, CNS, 48 hrs exposure, read-out: Growth Inhibition GI50 SF-268
Description: as §1

[25] = system: OVCAR-4; assay: NCI SRB GI50 screen; assay type: cell-based; settings: Homo sapiens, Ovarian, 48 hrs exposure, read-out: Growth Inhibition GI50 OVCAR-4
Description: as §1

[26] = system: UACC-62; assay: NCI SRB GI50 screen; assay type: cell-based; settings: Homo sapiens, Melanoma, 48 hrs exposure, read-out: Growth Inhibition GI50 UACC-62
Description: as §1

[27] = system: ACHN; assay: NCI SRB GI50 screen; assay type: cell-based; settings: Homo sapiens, Renal, 48 hrs exposure, read-out: Growth Inhibition GI50 ACHN
Description: as §1

[28] = system: SK-MEL-2; assay: NCI SRB GI50 screen; assay type: cell-based; settings: Homo sapiens, Melanoma, 48 hrs exposure, read-out: Growth Inhibition GI50 SK-MEL-2
Description: as §1

[29] = system: DU-145; assay: NCI SRB GI50 screen; assay type: cell-based; settings: Homo sapiens, Prostate, 48 hrs exposure, read-out: Growth Inhibition GI50 DU-145
Description: as §1

| Compound | melting point | GI50 [3] | GI50 [5] | GI50 [6] | GI50 [7] | GI50 [8] | GI50 [9] | GI50 [10] | GI50 [11] | GI50 [12] | GI50 [13] | GI50 [14] | GI50 [15] | GI50 [16] | GI50 [17] | GI50 [18] | GI50 [19] | GI50 [20] | GI50 [21] | GI50 [22] | other results |
| --- | --- | --- | --- | --- | --- | --- | --- | --- | --- | --- | --- | --- | --- | --- | --- | --- | --- | --- | --- | --- | --- |
| O=C(Nc1nc2ccc([N+](=O)[O-])cc2s1)c1cccnc1Nc1cc(F)c(F)c(F)c1 [Compound 8, N3-(6-nitro-1,3-benzothiazol-2-yl)-2-[(3,4,5-trifluorophenyl)amino]-3-pyridine carboxamide] | – | – | – | – | – | – | – | – | – | – | – | – | – | – | – | – | – | – | – | – | activation of caspases-3,-8,-9 activities [1]: 2-3 folds; IC50 [2]: > 100000 nM |
| O=C(Nc1nc2ccc(F)cc2s1)c1cccnc1Nc1ccc(Cl)cc1 [Compound 9, N3-(6-fluoro-1,3-benzothiazol-2-yl)-2-(4-chloroanilino)nicotinamide] | 254 to 257 °C | 1800 nM | 1740 nM | 2130 nM | 730 nM | 1110 nM | 2320 nM | 1970 nM | 3030 nM | 1610 nM | 2860 nM | 1940 nM | 2220 nM | 2090 nM | 2170 nM | 1940 nM | 1060 nM | 1680 nM | 1670 nM | 1670 nM | GI50 [4]: 1020 nM; GI50 [23]: 2320 nM; GI50 [24]: 3930 nM; GI50 [25]: 2920 nM; GI50 [26]: 1940 nM; GI50 [27]: 3080 nM; GI50 [28]: 1250 nM; GI50 [29]: 3670 nM |
| O=C(Nc1nc2ccc(F)cc2s1)c1cccnc1Nc1ccc(Cl)cc1Cl [Compound 10, N3-(6-fluoro-1,3-benzothiazol-2-yl)-2-(2,4-dichloroanilino)nicotinamide] | 208 to 210 °C | 1830 nM | 1830 nM | 2110 nM | 1930 nM | 1710 nM | 2700 nM | 2560 nM | 2900 nM | 1880 nM | 2980 nM | 2070 nM | 2270 nM | 2510 nM | 2440 nM | 2380 nM | 1850 nM | 1900 nM | 2340 nM | 2190 nM | GI50 [4]: 3400 nM; GI50 [23]: 2960 nM; GI50 [24]: 3880 nM; GI50 [25]: 2960 nM; GI50 [26]: 2120 nM; GI50 [27]: 3720 nM; GI50 [28]: 1740 nM; GI50 [29]: 3530 nM |
| COc1cc(Nc2ncccc2C(=O)Nc2nc3ccc(F)cc3s2)cc(OC)c1OC [Compound 11, N3-(6-fluoro-1,3-benzothiazol-2-yl)-2-(3,4,5-trimethoxyanilino)nicotinamide] | 214 to 216 °C | 2550 nM | 1860 nM | 2730 nM | 2300 nM | 1630 nM | 2950 nM | 3300 nM | 3010 nM | 1220 nM | 5150 nM | 2700 nM | 2110 nM | 2920 nM | 2770 nM | 3270 nM | 3260 nM | 3040 nM | 2270 nM | 3490 nM | GI50 [23]: 3110 nM; GI50 [24]: 6560 nM; GI50 [25]: 2730 nM; GI50 [26]: 1710 nM; GI50 [27]: 4820 nM; GI50 [28]: 2340 nM; GI50 [29]: 5500 nM |
| COc1ccc2nc(NC(=O)c3cccnc3Nc3cc(OC)c(OC)c(OC)c3)sc2c1 [Compound 12, N-3-(6-methoxy-1,3-benzothiazol-2-yl)-2-(3,4,5-trimethoxyanilino) nicotinamide] | 121 to 125 °C (dec.) | 8340 nM | 32300 nM | 6670 nM | 5060 nM | 11300 nM | 10700 nM | 7420 nM | 7100 nM | 17800 nM | 17700 nM | 11500 nM | 24200 nM | 8970 nM | 8920 nM | 10100 nM | 20100 nM | 17400 nM | 5380 nM | 4500 nM | GI50 [4]: 11800 nM; GI50 [23]: 7380 nM; GI50 [24]: 4430 nM; GI50 [25]: 15000 nM; GI50 [26]: 8450 nM; GI50 [27]: 6470 nM; GI50 [29]: 14600 nM |
